PubChem BioAssay AID2060350 (Molecular Pharmacology Branch, DTP, NCI, 2025)

Test system: PDC 521955-158-R6-J3 spheroids, viability
Experiment: Anticancer human tumor 521955-158-R6-J3-PDC patient-derived pancreatic carcinoma cell line growth inhibition [TAK]
Details: spheroids with HUVEC and MSC; for IC50: curve of first compound; for viability, T/C: stronger effect = lower value
Source text: Combinatorial screen of targeted agents with TAK-243 and ipatasertib in multi-cell type tumor spheroids
A high-throughput screen of multi-cell type tumor spheroids was designed to identify active combinations of targeted small molecules and TAK-243 or ipatasertib. Complex spheroids include a stromal component modeled by human endothelial cells (HUVEC) and fibroblasts modeled by human mesenchymal stem cells (MSCs). The concentration ranges selected for each drug and investigational agent were based upon clinically achievable concentrations if the clinical Cmax of the agent was known.
Compounds. The drugs and investigational agents: TAK-243 (785004), ipatasertib (767898), everolimus (733504), selumetinib (741078), bortezomib (756655), trametinib (758246), ixazomib (758254), vemurafenib (761431), dabrafenib (764134), sapanisertib (764658), alpelisib (765974), and copanlisib (816437), were obtained from the National Cancer Institute (NCI) Developmental Therapeutics Program Chemical Repository. The FDA-approved anticancer drug set is available from the NCI Developmental Therapeutics Program. […] The stock solutions were prepared in dimethyl sulfoxide (DMSO, Sigma-Aldrich, St. Louis, MO, cat. D2650) at 800-fold the tested concentration and stored at -70 degrees C prior to their use. All drugs and investigational agents were tested over a range starting from a high concentration at or near the clinical Cmax and decreasing in half-log increments. If the clinical Cmax for an agent had not been determined, the highest concentration tested was 10 microM.
NCI60 Cell Culture. NCI60 cell lines were obtained from the NCI Developmental Therapeutics Program Tumor Repository. For each lot of cells, the Repository performed Applied Biosystems AmpFLSTR Identifiler testing with PCR amplification to confirm consistency with the published Identifier STR profile for each cell line. Cells were kept in continuous culture for no more than 20 passages. The optimal seeding densities for each of the cell lines at each time point assessed were determined prior to performing the concentration response studies. Briefly, the NCI60 human tumor lines were grown as monolayers in RPMI 1640 medium supplemented with 10% FBS and 2 mmol/L L-glutamine.
An additional 2 lines were from the NCI60 cell line panel including melanomas, MALME-3M and SK-MEL-2. Pooled donor human umbilical vein endothelial cells (HUVEC, Lonza, cat. CC-2519) and human mesenchymal stem cells (hMSC, Lonza, cat. PT-2501) were purchased from Lonza (Walkersville, MD).
PDMR cell lines were grown in complete medium (DC medium): Dulbecco's modified Eagle's medium (DMEM)/F12 supplemented with 5% fetal bovine serum (FBS), 2 mM L-glutamine, 100 U/mL penicillin and 100 µg/ml streptomycin, 0.4 µg/ml hydrocortisone, 10 ng/ml epidermal growth factor (EGF) recombinant human protein, 24 µg/mL adenine, and 0.1 mg/mL primocin. During culture from frozen stock vials, PDMR cells were cultured in the same medium containing 10 µM Y-27632 (see Table 3). The PDCs were cultured in complete DMEM/F12 media without 10 microM Y-27632 dihydrochloride for at least two passages prior to the screen. The pooled donor HUVEC and hMSC were cultured in endothelial cell growth medium 2 (PromoCell, Heidelberg, Germany, cat. C-22011) and mesenchymal stem cell growth medium 2 (PromoCell, cat. C-28009), respectively. For all experiments, HUVEC and hMSC were used at passages </=5.
For the pre-screen, cell seeding densities were determined from a titration spanning the range from 5,000 to 313 cells per well. The mct-spheroids including 60% malignant cells, 25% HUVEC and 15% MSC dispensed as a mixture into U-bottom Ultra-Low Attachment 384-well plates (Corning, NY)
High-throughput Drug Combination Screening.
Prior to their inoculation into 384-well plates, malignant cells, HUVEC, and hMSC were removed from T flasks using TrypLE express (Thermo Fisher Scientific, cat. 12605036) and harvested by centrifugation for 5 min at 233 x g. […]
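Also: spheroids exposed to drugs for 7 days before readout.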
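For viability, T/C in this document: 100% = DMSO vehicle control viability.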

COC1CC2CCC(C)C(O)(O2)C(=O)C(=O)N2CCCCC2C(=O)OC(C(C)CC2CCC(OCCO)C(OC)C2)CC(=O)C(C)C=C(C)C(O)C(OC)C(=O)C(C)CC(C)C=CC=CC=C1C (stereo not given) + CC(C)NCC(C(=O)N1CCN(c2ncnc3c2C(C)CC3O)CC1)c1ccc(Cl)cc1
IC50 (second compound 0.3 µM): > 100 nM
IC50 (second compound 0.949 µM): > 100 nM
IC50 (second compound 3 µM): > 100 nM
IC50 (second compound 9.49 µM): > 100 nM
IC50 (second compound 30 µM): > 100 nM
viability, T/C (second compound 0.3 µM, first compound 0.000316 µM): 98.5%
viability, T/C (second compound 0.3 µM, first compound 0.001 µM): 93%
viability, T/C (second compound 0.3 µM, first compound 0.00316 µM): 97%
viability, T/C (second compound 0.3 µM, first compound 0.01 µM): 96.4%
viability, T/C (second compound 0.3 µM, first compound 0.0316 µM): 102%
viability, T/C (second compound 0.3 µM, first compound 0.1 µM): 81.1%
viability, T/C (second compound 0.949 µM, first compound 0.000316 µM): 95.8%
viability, T/C (second compound 0.949 µM, first compound 0.001 µM): 89.6%
viability, T/C (second compound 0.949 µM, first compound 0.00316 µM): 99.1%
viability, T/C (second compound 0.949 µM, first compound 0.01 µM): 102%
viability, T/C (second compound 0.949 µM, first compound 0.0316 µM): 91.3%
viability, T/C (second compound 0.949 µM, first compound 0.1 µM): 78%
viability, T/C (second compound 3 µM, first compound 0.000316 µM): 96.5%
viability, T/C (second compound 3 µM, first compound 0.001 µM): 78.3%
viability, T/C (second compound 3 µM, first compound 0.00316 µM): 85.8%
viability, T/C (second compound 3 µM, first compound 0.01 µM): 89.1%
viability, T/C (second compound 3 µM, first compound 0.0316 µM): 73.7%
viability, T/C (second compound 3 µM, first compound 0.1 µM): 63.3%
viability, T/C (second compound 9.49 µM, first compound 0.000316 µM): 86.2%
viability, T/C (second compound 9.49 µM, first compound 0.001 µM): 67.7%
viability, T/C (second compound 9.49 µM, first compound 0.00316 µM): 65%
viability, T/C (second compound 9.49 µM, first compound 0.01 µM): 74.8%
viability, T/C (second compound 9.49 µM, first compound 0.0316 µM): 76.8%
viability, T/C (second compound 9.49 µM, first compound 0.1 µM): 58.4%
viability, T/C (second compound 30 µM, first compound 0.000316 µM): 81.8%
viability, T/C (second compound 30 µM, first compound 0.001 µM): 59.6%
viability, T/C (second compound 30 µM, first compound 0.00316 µM): 55.9%
viability, T/C (second compound 30 µM, first compound 0.01 µM): 62.8%
viability, T/C (second compound 30 µM, first compound 0.0316 µM): 56%
viability, T/C (second compound 30 µM, first compound 0.1 µM): 48.4%

Cn1cnc2c(F)c(Nc3ccc(Br)cc3Cl)c(C(=O)NOCCO)cc21 + CC(C)NCC(C(=O)N1CCN(c2ncnc3c2C(C)CC3O)CC1)c1ccc(Cl)cc1
IC50 (second compound 0.3 µM): 326 nM
IC50 (second compound 0.949 µM): 176 nM
IC50 (second compound 3 µM): 324 nM
IC50 (second compound 9.49 µM): 141 nM
IC50 (second compound 30 µM): 186 nM
viability, T/C (second compound 0.3 µM, first compound 0.00949 µM): 66.8%
viability, T/C (second compound 0.3 µM, first compound 0.03 µM): 60.1%
viability, T/C (second compound 0.3 µM, first compound 0.0949 µM): 54.6%
viability, T/C (second compound 0.3 µM, first compound 0.3 µM): 47.5%
viability, T/C (second compound 0.3 µM, first compound 0.949 µM): 51.8%
viability, T/C (second compound 0.3 µM, first compound 3 µM): 38.9%
viability, T/C (second compound 0.949 µM, first compound 0.00949 µM): 69.6%
viability, T/C (second compound 0.949 µM, first compound 0.03 µM): 58.4%
viability, T/C (second compound 0.949 µM, first compound 0.0949 µM): 48.3%
viability, T/C (second compound 0.949 µM, first compound 0.3 µM): 49.7%
viability, T/C (second compound 0.949 µM, first compound 0.949 µM): 43.8%
viability, T/C (second compound 0.949 µM, first compound 3 µM): 25.7%
viability, T/C (second compound 3 µM, first compound 0.00949 µM): 68.2%
viability, T/C (second compound 3 µM, first compound 0.03 µM): 60.9%
viability, T/C (second compound 3 µM, first compound 0.0949 µM): 52.4%
viability, T/C (second compound 3 µM, first compound 0.3 µM): 51.8%
viability, T/C (second compound 3 µM, first compound 0.949 µM): 43%
viability, T/C (second compound 3 µM, first compound 3 µM): 21.6%
viability, T/C (second compound 9.49 µM, first compound 0.00949 µM): 66.8%
viability, T/C (second compound 9.49 µM, first compound 0.03 µM): 55.7%
viability, T/C (second compound 9.49 µM, first compound 0.0949 µM): 47.8%
viability, T/C (second compound 9.49 µM, first compound 0.3 µM): 49.5%
viability, T/C (second compound 9.49 µM, first compound 0.949 µM): 33.9%
viability, T/C (second compound 9.49 µM, first compound 3 µM): 15.8%
viability, T/C (second compound 30 µM, first compound 0.00949 µM): 64.3%
viability, T/C (second compound 30 µM, first compound 0.03 µM): 56.7%
viability, T/C (second compound 30 µM, first compound 0.0949 µM): 49.6%
viability, T/C (second compound 30 µM, first compound 0.3 µM): 50.1%
viability, T/C (second compound 30 µM, first compound 0.949 µM): 35.8%
viability, T/C (second compound 30 µM, first compound 3 µM): 15.1%
